Here are results for three compounds from patent US11389411B2, “Pharmaceutical composition, containing NM23 activator, for inhibiting cancer metastasis” (EWHA UNIVERSITY—INDUSTRY COLLABORATION FOUNDATION, priority 2017, dated 2022).

Assay [1] deals with T1, Nm23-H1 (Homo sapiens, UniProt P15531). Nature of the assay: NDPK assay with recombinant Nm23-H1. The assay is classed as biochemical. To be noted: for Relative NDPK activity (±S.D): relative to a DMSO-treated group (DMSO = 1). Here is the method:
(§1) 5 ng of recombinant Nm23-H1 was incubated with 5 μM ADP and a test substance (the compound of Formula 2-1, 3-1 or 4-1) in NDPK assay buffer (20 mM HEPES, 3 mM MgCl2) at mom temperature for 1 minute, and cell-based NDPK assay was performed. A cell lysate obtained from 5,000K MDA-MB-231 cells lysed with a protease inhibitor cocktail and an NDPK assay buffer was centrifuged at 8,000 rpm for 10 minutes at 4° C. 40 μL of the lysate was incubated with the test substance for 5 minutes, and then 50 μM UDP was added thereto and reacted with NDPK. ATP consumption was assessed by an ATP determination kit (Molecular probe, USA).

Assay [2] addresses T1, Nm23-H1. Nature of the assay: Surface plasmon resonance analysis of interaction with immobilized Nm23-H1. To be noted: SPR, 25° C.; for Kd: calculated Kd/Ka; for kon: read-out: Ka. It is filed as binding. Here is the method:
The interaction between the compound of Formula 2-1 and Nm23-H1 was analyzed using a surface plasmon resonance instrument (SR7500 DC, Reichert Inc., NY) at 25° C.
Nm23-H1 (1 mg/ml) in 10 mM S.A buffer (pH 4.5) was immobilized using the standard amino coupling at 20 μL/min for 10 minutes on a carboxymethyl dextran hydrogel (CMDH) surface sensor chip (Reichert Technologies, NY) until saturation was achieved.
Different concentrations of the compound of Formula 2-1 (10-160 μM) in binding buffer (10 mM HEPES, pH 7.4, 100 mM NaCl, 1 mM MgCl2, and with or without 2 mM ATP) were allowed to flow over the immobilized Nm23-H1 (approximately 8200 RU) at a rate of 30 μL/min.
The sensor surface was regenerated after each association and dissociation cycle by injecting 2M NaCl for 1 min. Sensorgrams were fitted to a simple 1:1 Langmuir interaction model (A+B⇄AB) using data analysis program Scrubber 2.0 (BioLogic Sofware, Australia, and Kaleida Graph Sofware, Australia).
KD is a value obtained by calculating Kd/Ka.

Assay [3] has as its system MDA-MB-231 cells. Nature of the assay: Cell-based NDPK assay (MDA-MB-231 cell lysate). To be noted: FIG. 3C, MDA-MB-231 lysate, concentration dependence. On the procedure:
as §1

In assay [4] the target is Nm23-H2 (Homo sapiens, UniProt P22392). Briefly: NDPK activity assay on Nm23-H2. It is filed as biochemical. To be noted: FIG. 3D.
Sequence of Nm23-H2 (P22392 whole entry): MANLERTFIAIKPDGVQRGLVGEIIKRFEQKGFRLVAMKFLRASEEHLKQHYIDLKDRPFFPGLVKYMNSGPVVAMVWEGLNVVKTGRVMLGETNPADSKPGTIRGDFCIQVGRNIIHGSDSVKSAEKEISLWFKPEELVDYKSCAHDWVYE
Assay [5] concerns the target T1, Nm23-H1. Briefly: Isothermal titration calorimetry. It is filed as binding. To be noted: FIG. 4, with and without ATP. Here is the method:
An ITC experiment was performed using the ITC200 system (Malvern Inc.), and the data were analyzed using ORIGIN 7.0 program. The concentration of Nm23-H1 protein in the cells was 30 μM, and the syringe contained 300 μM of the activator or 1 mM ATP. The activator was prepared at a concentration of 50 mM in DMSO (dimethyl sulfoxide) and stored at −20° C. ITC buffer contained (pH 7.5) 150 mM NaCl, 3 mM MgCl2 and 20 mM HEPES in up to 2% DMSO. For titration, each 2 μL was injected 20 times 25° C. at intervals of 150 seconds. No evidence of DMSO binding at the nucleotide binding site was observed. The experimental raw data were corrected by subtracting the value for the buffer, and then fitted to a single site binding model. The titration data were fitted using a nonlinear least squares curve-fitting algorithm with three floating variables: stoichiometry (N), dissociation constant (KD), and change of enthalpy of interaction.
In general terms: In ITC the heat of successive injections is recorded.

The test system of assay [6] is MDA-MB-231 cells. Briefly: Immunofluorescence analysis (F-actin, confocal microscopy). The assay is classed as cell-based. To be noted: FIG. 6A. Here is the method:
MDA-MB-231 cells were grown on the Secureslip™ (Sigma) cell culture glass cover slip to a confluence of 50 to 70%, and incubated in the presence or absence of the compound of Formula 2-1 for various periods of time. The cells were gently washed with cold HBSS, and then fixed with 4% paraformaldehyde-containing HBSS in RBS for 10 minutes. After washing with HBSS, permeabilization with 0.1% Triton X-100 was performed for 10 minutes at mom temperature. After washing twice with HBSS, the cells were blocked with HBSS containing 3% BSA, 0.2% Tween 20 and 0.2% gelatin at room temperature for 1 hour, and incubated with primary antibody at mom temperature for 1 hour. Then, the cells were incubated with fluorochrome-conjugated species-specific secondary antibodies for 1 hour.
All the antibodies were diluted with 1% BSA-containing HBSS. Coverslips were mounted with anti-fading solution, and viewed using a ×63 objective lens of an LSM510 META (Zeiss) laser scanning confocal microscope.

Assay [7] has as its system Rac1. Nature of the assay: Rac1 activity assay (active Rac1 pulldown). It is filed as cell-based. On the procedure:
MDA-MB-231 cells were grown in a 100 mm dish and treated with the compound of Formula 2-1 or 0.05% DMSO at an indicated concentration for 16 hours. Active Rac1 pulldown assays were performed according to the manufacturer's instructions (Termo Fisher Scientifc).

For assay [8], the system named is MDA-MB-231 cells. Briefly: Invasion assay and transwell migration assay in MDA-MB-231 cells. The assay is classed as cell-based. On the procedure: (§2) When cells reached a confluence of 70%, the cells were treated with the compound of Formula 2-1 for 16 hours. 1×10^5 cells were suspended in PBS-free medium and added onto a Boyden chamber membrane. 10% PBS-containing culture was added to the bottom of the membrane. The chamber was incubated at 37° C. under 5% CO2 for 4 hours. The migrated cells were fixed and stained with crystal violet/methanol. The cells were photographed, and the migrated cells were counted and normalized to control cells.

The test system of assay [9] is A549 cells. Briefly: Transwell migration and matrigel invasion of A549 cells. The assay is classed as cell-based. To be noted: FIG. 7B. Here is the method: as §2
Assay [10] has as its system MDA-MB-231 luc cells. Nature of the assay: Breast cancer metastasis model (MDA-MB-231 luc cells in mammary fat pad). The assay is classed as in vivo, nude mice. The source says: In order to confirm the metastasis suppressing activity of the compound of Formula 2-1 according to the present disclosure in an actual animal model, MDA-MB-231 luc cells were applied to a breast cancer metastasis model.

[11] abbreviates: FIG. 7A, MDA-MB-231 cells, different concentrations.

Read-outs that look alike come from different tables or passages of the source.

T1 sequence (P15531 whole entry): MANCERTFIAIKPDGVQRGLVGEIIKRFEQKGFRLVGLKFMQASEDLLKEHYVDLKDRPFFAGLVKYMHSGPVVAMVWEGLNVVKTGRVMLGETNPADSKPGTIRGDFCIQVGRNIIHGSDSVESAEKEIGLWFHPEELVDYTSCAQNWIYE

Turning to `COc1ccc(/C=C/[C@H]2CCCCC2c2ccc(OC)c(OC)c2)cc1OC` (some centres unmarked) [Formula 4-1], the “Relative NDPK activity (±S.D)” value in assay [1] is given as 2.41 (±0.29).
The Kd is the equilibrium constant for the complex coming apart. Take `COc1ccc(/C=C/[C@H]2CCC=C[C@@H]2c2ccc(OC)c(OC)c2)cc1OC` [Formula 2-1]: the Kd in [2] (2 nM ATP) was 1.49 ± 0.03 µM; in [2] (without ATP) it was 17.9 ± 0.2 µM. The kon in [2] (2 nM ATP) came to 71 ± 1 M⁻¹ s⁻¹; in assay [2] (without ATP), 78 ± 1 M⁻¹ s⁻¹. Further, the “NDPK activity of Nm23-H1” value in assay [1] (FIG. 3A, concentration dependence) is listed as “increased depending on the concentration”. In addition, the “V0, Km of the enzyme (NDPK activity depending on the concentration of UDP)” value in assay [1] (FIG. 3B) is listed as “Km-type activity similar to that of a conventional enzyme activator”. The “Relative NDPK activity (±S.D)” value in assay [1] is listed as 4.04 (±0.13). For the same compound, the “cell-based NDPK activity” value in assay [3] was “increased depending on the concentration”. Further, the “NDPK activity on Nm23-H2” value in assay [4] is on record as “showed the same activity”. Moreover, in assay [5], the “direct interaction with Nm23-H1 (ITC)” value was “occurred and was further enhanced in the presence of ATP”. Also, the “change of F-actin / cell morphology” value in assay [6] was “ruffles decreased and intercellular contact increased”. Besides, the “activity of Rac1” value in assay [7] (FIG. 6B, MDA-MB-231 cells, 16 hours) is recorded as “reduced the activity of Rac1 in a concentration-dependent manner”. Moreover, the “effect on Rac1 activity after knockdown of Nm23-H1” value in assay [7] (FIGS. 6C and 6D) is “abolished by knockdown of Nm23-H1”. In addition, the matrigel invasion result in [8] (setting [11]) and in assay [9] was “reduced” throughout. For the same compound, the transwell migration entry in [8] (setting [11]) and in [9] was “reduced” throughout. The “effect on migration/invasion after knockdown of Nm23-H1 and Nm23-H2” value in assay [8] (FIG. 7C) is “reduced by knockdown of Nm23-H1 and Nm23-H2”. The “metastasis of the cells to the lung” value in assay [10] (FIG. 8, 10 mg/kg daily, 4 weeks) is listed as “decreased”. Besides, the “volume of the tumor” value in [10] (FIG. 9, 10 mg/kg daily) is “decreased”. In addition, the “cells that metastasized to the lung” value in assay [10] (FIG. 10, 10 mg/kg daily) is “statistically significantly decreased”.
For `COc1ccc(/C=C/c2ccccc2-c2ccc(OC)c(OC)c2)cc1OC` [Formula 3-1], in assay [1], the “Relative NDPK activity (±S.D)” value is on record as 4.11 (±0.16).
